Measured values taken from patent US20250179017A1 (GUANGDONG NEWOPP BIOPHARMACEUTICALS CO., LTD., priority 2022, published 2025).

target: T1, human EP2 (PTGER2) (Homo sapiens, UniProt P43116); experiment: EP2 antagonist assay (HEK-293 CNG membrane potential cAMP assay / 293T SEAP reporter assay, PGE2-stimulated); type: cell-based; conditions: EP2 antagonist activity; concentration for 50% inhibition of signal compared to DMSO
T1 construct: Cayman Chemical (Human EP2 Reporter Assay Kit)
In short: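 HEK-293 CNG cells expressing human EP2: compound preincubated 15 min at RT, then PGE2 at 5 nM final, 30 min; membrane-potential dye fluorescence (ex 530, em 590 nm), background-subtracted, gave IC50. Alternatively, 293T cells reverse-transfected with EP2 and CRE-SEAP, compound plus 13 nM PGE2 for 6-8 h, SEAP luminescence.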

T1 sequence (P43116 whole entry): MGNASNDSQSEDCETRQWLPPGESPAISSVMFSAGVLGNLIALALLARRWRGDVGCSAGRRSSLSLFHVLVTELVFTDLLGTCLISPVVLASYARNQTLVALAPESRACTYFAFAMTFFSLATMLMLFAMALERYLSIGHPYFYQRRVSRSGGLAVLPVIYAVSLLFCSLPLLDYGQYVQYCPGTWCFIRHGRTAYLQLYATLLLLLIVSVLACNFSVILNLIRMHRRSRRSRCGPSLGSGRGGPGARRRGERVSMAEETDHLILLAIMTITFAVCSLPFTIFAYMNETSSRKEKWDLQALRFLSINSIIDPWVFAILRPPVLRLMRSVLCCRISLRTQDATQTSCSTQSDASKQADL

SMILES | IC50 [nM]
O=C(O)c1ccc(CNC(=O)c2cc(-c3ccc(F)cc3)cc3ncn(Cc4ccc(C(F)(F)F)cc4)c23)cc1 [Example 172, 4-((5-(4-fluorophenyl)-1-(4-(trifluoromethyl)benzyl)-1H-benzo[d]imidazole-7-carboxamido)methyl)benzoic acid] | < 100
O=C(O)c1ccc(CNC(=O)c2cc(-c3cc(F)cc(F)c3)cc3ncn(Cc4ccc(C(F)(F)F)cc4)c23)cc1 [Example 173, 4-((5-(3,5-difluorophenyl)-1-(4-(trifluoromethyl)benzyl)-1H-benzo[d]imidazole-7-carboxamido)methyl)benzoic acid] | < 100
O=C(O)c1ccc(CNC(=O)c2cc(-c3ccccc3)cc3nnn(Cc4ccc(C(F)(F)F)cc4)c23)cc1 [Example 174, ((5-phenyl-1-(4-(trifluoromethyl)benzyl)-1H-benzo[d][1,2,3]triazole-7-carboxamido)methyl)benzoic acid] | < 100
O=C(O)c1ccc(CNC(=O)c2cc(-c3ccccc3)cc3ccn(Cc4cccc5ccccc45)c23)cc1 [Example 177, 44-((1-(naphthalen-1-ylmethyl)-5-phenyl-1H-indole-7-carboxamido)methyl)benzoic acid] | < 100
C[C@H](NC(=O)c1cc(-c2ccccc2)cc2nnn(Cc3ccc(C(F)(F)F)cc3)c12)c1ccc(C(=O)O)cc1 [Example 179, (S)-4-(1-(5-phenyl-1-(4-(trifluoromethyl)benzyl)-1H-benzo[d][1,2,3]triazole-7-carboxamido)ethyl)benzoic acid] | < 100
C[C@H](NC(=O)c1cc(-c2cc(F)cc(F)c2)cc2nnn(Cc3ccc(C(F)(F)F)cc3)c12)c1ccc(C(=O)O)cc1 [Example 181, (S)-4-(1-(5-(3,5-difluorophenyl)-1-(4-(trifluoromethyl)benzyl)-1H-benzo[d][1,2,3]triazole-7-carboxamido)ethyl)benzoic acid] | ≥ 1000
O=C(O)c1ccc(CNC(=O)c2ccc(Nc3ccc(F)cc3)c3cnn(Cc4ccc5ccccc5c4)c23)cc1 [Example 182, 4-((4-((4-fluorophenyl)amino)-1-(naphthalen-2-ylmethyl)-1H-indazole-7-carboxamido)methyl)benzoic acid] | ≥ 1000
O=C(O)c1ccc(CNC(=O)c2ccc(Nc3ccc(F)cc3)c3ccn(Cc4ccc5ccccc5c4)c23)cc1 [Example 183, ((4-((4-fluorophenyl)amino)-1-(naphthalen-2-ylmethyl)-1H-indole-7-carboxamido)methyl)benzoic acid] | < 100
O=C(O)c1ccc(CNC(=O)c2cc(-c3ccc(F)cc3)cc3cnn(Cc4ccc(-c5ccc(F)cc5)cc4)c23)cc1 [Example 185, 4-((1-((4′-fluoro-[1,1′-biphenyl]-4-yl)methyl)-5-(4-fluorophenyl)-1H-indazole-7-carboxamido)methyl)benzoic acid] | < 100
O=C(O)c1ccc(CNC(=O)c2cc(-c3cc(F)cc(F)c3)cc3cnn(Cc4ccc(-c5ccc(F)cc5)cc4)c23)cc1 [Example 186, 4-((5-(3,5-difluorophenyl)-1-((4′-fluoro-[1,1′-biphenyl]-4-yl)methyl)-1H-indazole-7-carboxamido)methyl)benzoic acid] | < 100
O=C(O)c1ccc(CNC(=O)c2cc(-c3ccc(F)c(F)c3)cc3cnn(Cc4ccc(-c5ccc(F)cc5)cc4)c23)cc1 [Example 187, 4-((5-(3,4-difluorophenyl)-1-((4′-fluoro-[1,1′-biphenyl]-4-yl)methyl)-1H-indazole-7-carboxamido)methyl)benzoic acid] | < 100
O=C(O)c1ccc(CNC(=O)c2cc(-c3cc(F)cc(F)c3)cc3cnn(Cc4ccc(-c5ccccc5)cc4)c23)cc1 [Example 192, 4-((1-([1,1′-biphenyl]-4-ylmethyl)-5-(3,5-difluorophenyl)-1H-indazole-7-carboxamido)methyl)benzoic acid] | < 100
O=C(O)c1ccc(CNC(=O)c2cc(-c3ccc(F)c(F)c3)cc3cnn(Cc4ccc(-c5ccccc5)cc4)c23)cc1 [Example 193, 4-((1-([1,1′-biphenyl]-4-ylmethyl)-5-(3,4-difluorophenyl)-1H-indazole-7-carboxamido)methyl)benzoic acid] | < 100
C[C@H](NC(=O)c1cc(-c2ccc(F)cc2)cc2cnn(Cc3ccc(C(F)(F)F)cc3)c12)c1ccc(C(=O)O)cc1 [Example 194, (S)-4-(1-(5-(4-fluorophenyl)-1-(4-(trifluoromethyl)benzyl)-1H-indazole-7-carboxamido)ethyl)benzoic acid] | < 100
C[C@H](NC(=O)c1cc(-c2ccc(F)c(F)c2)cc2cnn(Cc3ccc(C(F)(F)F)cc3)c12)c1ccc(C(=O)O)cc1 [Example 195, (S)-4-(1-(5-(3,4-difluorophenyl)-1-(4-(trifluoromethyl)benzyl)-1H-indazole-7-carboxamido)ethyl)benzoic acid] | < 100
C[C@H](NC(=O)c1cc(-c2ccccc2)cc2cnn([C@H](C)c3ccc4ccccc4c3)c12)c1ccc(C(=O)O)cc1 [Example 196, 4-((S)-1-(1-((R)-1-(naphthalen-2-yl)ethyl)-5-phenyl-1H-indazole-7-carboxamido)ethyl)benzoic acid] | < 100
C[C@H](NC(=O)c1cc(-c2ccccc2)cc2cnn([C@@H](C)c3ccc4ccccc4c3)c12)c1ccc(C(=O)O)cc1 [Example 197, 4-((S)-1-(1-((S)-1-(naphthalen-2-yl)ethyl)-5-phenyl-1H-indazole-7-carboxamido)ethyl)benzoic acid] | 100 to 1000
C[C@H](NC(=O)c1cc(-c2ccccc2)cc2cnn(Cc3ccc(-c4ccccc4)cc3)c12)c1ccc(C(=O)O)cc1 [Example 198, (S)-4-(1-(1-([1,1′-biphenyl]-4-ylmethyl)-5-phenyl-1H-indazole-7-carboxamido)ethyl)benzoic acid] | < 100
C[C@H](NC(=O)c1cc(-c2ccc(F)cc2)cc2cnn(Cc3ccc(-c4ccccc4)cc3)c12)c1ccc(C(=O)O)cc1 [Example 199, (S)-4-(1-(1-([1,1′-biphenyl]-4-ylmethyl)-5-(4-fluorophenyl)-1H-indazole-7-carboxamido)ethyl)benzoic acid] | < 100
C[C@H](NC(=O)c1cc(-c2cc(F)cc(F)c2)cc2cnn(Cc3ccc(-c4ccccc4)cc3)c12)c1ccc(C(=O)O)cc1 [Example 200, (S)-4-(1-(1-([1,1′-biphenyl]-4-ylmethyl)-5-(3,5-difluorophenyl)-1H-indazole-7-carboxamido)ethyl)benzoic acid] | < 100

Further lines, results first:

IC50 [nM] | SMILES
< 100 | COc1cccc(Cn2ccc3c(Nc4ccccc4)ccc(C(=O)NCc4ccc(C(=O)O)cc4)c32)c1 [Example 155, 4-((1-(3-methoxybenzyl)-4-(phenylamino)-1H-indole-7-carboxamido)methyl)benzoic acid]
< 100 | O=C(O)c1ccc(CNC(=O)c2cc(-c3cc(F)cc(F)c3)cc3cnn(Cc4ccc5ccccc5c4)c23)cc1 [Example 157, 4-((5-(3,5-difluorophenyl)-1-(naphthalen-2-ylmethyl)-1H-indazole-7-carboxamido)methyl)benzoic acid]
< 100 | COc1cccc(Cn2ccc3c(Nc4ccccc4)ccc(C(=O)N[C@@H](C)c4ccc(C(=O)O)cc4)c32)c1 [Example 158, (S)-4-(1-(1-(3-methoxybenzyl)-4-(phenylamino)-1H-indole-7-carboxamido)ethyl)benzoic acid]
< 100 | O=C(O)c1ccc(CNC(=O)c2cc(-c3ccccc3)cc3ccn(Cc4ccc5ccccc5c4)c23)cc1 [Example 159, 4-((1-(naphthalen-2-ylmethyl)-5-phenyl-1H-indole-7-carboxamido)methyl)benzoic acid]
< 100 | O=C(O)c1ccc(CNC(=O)c2cc(-c3ccc(F)cc3)cc3ccn(Cc4ccc5ccccc5c4)c23)cc1 [Example 160, 4-((5-(4-fluorophenyl)-1-(naphthalen-2-ylmethyl)-1H-indole-7-carboxamido)methyl)benzoic acid]
< 100 | O=C(O)c1ccc(CNC(=O)c2cc(-c3cc(F)cc(F)c3)cc3ccn(Cc4ccc5ccccc5c4)c23)cc1 [Example 161, 4-((5-(3,5-difluorophenyl)-1-(naphthalen-2-ylmethyl)-1H-indole-7-carboxamido)methyl)benzoic acid]
< 100 | C[C@H](NC(=O)c1cc(-c2ccccc2)cc2ccn(Cc3ccc4ccccc4c3)c12)c1ccc(C(=O)O)cc1 [Example 162, (S)-4-(1-(1-(naphthalen-2-ylmethyl)-5-phenyl-1H-indole-7-carboxamido)ethyl)benzoic acid]
< 100 | C[C@H](NC(=O)c1cc(-c2ccc(F)cc2)cc2ccn(Cc3ccc4ccccc4c3)c12)c1ccc(C(=O)O)cc1 [Example 163, (S)-4-(1-(5-(4-fluorophenyl)-1-(naphthalen-2-ylmethyl)-1H-indole-7-carboxamido)ethyl)benzoic acid]
< 100 | C[C@H](NC(=O)c1cc(-c2cc(F)cc(F)c2)cc2ccn(Cc3ccc4ccccc4c3)c12)c1ccc(C(=O)O)cc1 [Example 164, (S)-4-(1-(5-(3,5-difluorophenyl)-1-(naphthalen-2-ylmethyl)-1H-indole-7-carboxamido)ethyl)benzoic acid]
< 100 | C[C@H](NC(=O)c1cc(-c2ccccc2)cc2cnn(Cc3ccc4ccccc4c3)c12)c1ccc(C(=O)O)cc1 [Example 167, (S)-4-(1-(1-(naphthalen-2-ylmethyl)-5-phenyl-1H-indazole-7-carboxamido)ethyl)benzoic acid]
< 100 | C[C@H](NC(=O)c1cc(-c2ccccc2)cc2cnn(Cc3cccc(Cl)c3)c12)c1ccc(C(=O)O)cc1 [Example 170, (S)-4-(1-(1-(3-chlorobenzyl)-5-phenyl-1H-indazole-7-carboxamido)ethyl)benzoic acid]
< 100 | O=C(O)c1ccc(CNC(=O)c2cc(-c3ccccc3)cc3ncn(Cc4ccc(C(F)(F)F)cc4)c23)cc1 [Example 171, 4-((5-phenyl-1-(4-(trifluoromethyl)benzyl)-1H-benzo[d]imidazole-7-carboxamido)-methyl)benzoic acid]
